Data as given in patent US20040197268A1, “Method of imaging amyloid deposits using substituted rhodanine derivatives” (priority 1999, published 2004).
Where “and” joins values, the source holds several entries; their conditions need not be identical. Identical values can stand only once.

Columns and labels:
[1] = biological target: T1, Aβ(1-40) (Homo sapiens, UniProt P05067); test: BASST (Beta-Amyloid Self-Seeding, ThioflavinT), inhibitors of self-seeded amyloid fibril growth; format: biochemical; settings: 30 μM soluble Aβ(1-40), pH 7.5, 37° C., 3 to 5 hours, thioflavin T fluorescence
T1 construct: Soluble Aβ(1-40) peptide (Bachem, Torrance, Calif.); purchased Bachem, Torrance, Calif
T1 sequence (P05067 672-711 limits assumed): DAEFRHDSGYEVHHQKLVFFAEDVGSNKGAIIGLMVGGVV
Method: BASST (Beta-Amyloid Self-Seeding, ThioflavinT)
(§1) An assay for inhibitors of self-seeded amyloid fibril growth
Assay Buffer—50 mM sodium phosphate, pH 7.5, 100 mM NaCl, 0.02% NaN3, 1 M urea (filter and store at 4° C.).
Soluble Aβ(1-40)—2.2 mg/mL in deionized H2O (store in aliquots at −20° C., keep on ice when thawed) will self-seed after 1 week storage. Typically, the solution should be stored until no lag phase is seen in the assay.
Final assay conditions: 30 μM soluble Aβ(1-40) in deionized water in assay buffer. Compound to be tested is dissolved in DMSO, typically 5-50 mM stock, such that the final concentration of DMSO is <1% v/v in the assay.
Assay: Reaction mixture for 50 assays (on ice) comprised of 1 μL of soluble Aβ(1-40)+13.5 μL assay buffer per assay. The following are the amounts of the components of the reaction mixture that result in each of the 50 assay wells.
1) Prepare the reaction mix above by mixing the components and storing on ice.
2) Pipet […] of reaction mixture into each of 50 wells of a polystyrene U-bottom 96-well microtiter plate (Corning 25881-96) on ice.
(§2) 3) Add 1.7 mL of diluted compound to be tested to each well in a column of eight, including solvent control. Serial 3-fold dilutions from 1 mM (100 μM final) in assay buffer−urea=7 dilutions+zero. Each 96-well plate can therefore accommodate 11 samples+1 Congo Red control (0.039-5 μM final in 2-fold steps).
4) Seal the plate with aluminum film and incubate for 10 minutes on ice.
5) Raise the temperature to 37° C. and incubate for 3 to 5 hours (depends on the lot of the peptide).
6) Remove the aluminum film and add 250 μL/well of 5 μM thioflavin T (ThT) [T-3516, Sigma-Aldrich] in 50 mM glycine-NaOH, pH 8.5. Read fluorescence on a plate reader (ex=440 nm/20 nm; em=485 nm/20 nm) within 5 minutes.

[2] = biological target: T2, Aβ(1-42) (Homo sapiens, UniProt P05067); test: BATYM Assay (Aβ(1-42) aggregation, Thioflavin T fluorescence); format: biochemical; settings: Aβ 1-42 final concentration 100 μM, PBS pH 7.4, 37° C., 1 day, ThT fluorescence
T2 construct: Required Aβ(1-42)(California Peptide) was dried from its hexafluoroisopropanol (HFIP) stock solution; purchased California Peptide
T2 sequence (P05067 672-713 limits assumed): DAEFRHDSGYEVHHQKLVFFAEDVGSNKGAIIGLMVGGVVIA
Method: Required Aβ(1-42)(California Peptide) was dried from its hexafluoroisopropanol (HFIP) stock solution. The Aβ(1-42) was dissolved in dimethylsulfoxide (DMSO) and then mixed with phosphate buffered saline, (PBS) (pH 7.4). The mixed Aβ(1-42) solution was filtered with a 0.2 μm Omnipore membrane syringe filter (Millipore, Bedford, Mass.). The compound to be tested in DMSO (50 times concentrate) was put into each well (0.5 μL/well) of a 96-well plate. The Aβ(1-42) solution was added into each well (24.5 μL/well). The plate was centrifuged at 1,000 g for 5 minutes and incubated at 37° C. for 1 day (Aβ 1-42; final concentration 100 μM).
After incubation Thioflavin T (ThT) (30 μM) solution in glycine-NaOH buffer (pH 8.5, 50 mM) was added into each well (250 μL/well), fluorescence was measured (ex. 440/20 nm; em 485/20 nm) using a fluorescence plate reader. The inhibitory activity was calculated as the reduction of fluorescence with the following formula:
inhibition (%)={(F(Aβ)−F(Aβ+compound)}/{F(Aβ)−F(solvent+compound)}×100
The IC50s were calculated by a curve fitting program using the following equation. The data were obtained from two different experiments in triplicate.
x=concentration of tested compound (M),

[3] = biological target: T3, beta amyloid peptide Aβ(1-40) (Homo sapiens, UniProt P05067); test: BAPA (Beta-Amyloid Peptide Aggregation), pH 6.0; format: biochemical; settings: Aβ(1-40) 33 μM, pH 6.0, 2 to 4 hours at room temperature, filtration
T3 construct: 0.5 mg/mL AP (140) peptide in 20% HFIP+0.1 μL/assay radioiodinated ^125I Aβ(1-40)
T3 sequence (P05067 672-711 limits assumed): as the sequence (P05067 672-711 limits assumed) above
Method: BAPA (Beta-Amyloid Peptide Aggregation)
This assay is used to provide a measure of inhibition by a compound against the aggregation behavior of the beta amyloid peptide.
The purpose of this assay is to provide a higher volume method of assaying the amount of beta amyloid aggregation using an endpoint assay based on filtration. In this assay, hexafluoroisopropanol (HFIP) is used to break down the initial amyloid peptide to a monomer state and use a concentration of 33 μM which is high enough so that aggregation will occur at pH 6.0 in several hours.
β-Amyloid Peptide Aggregation, pH 6.0 (BAPA)
In a 96-well plate (Costar 3794), we add […] 50 mM Phosphate Buffer, pH 6.0, 10 μL 0.5 mg/mL AP (140) peptide in 20% HFIP+0.1 μL/assay radioiodinated ^125I Aβ(1-40) [^125I Aβ(1-40)], and 1 μL of the compound to be tested starting at 50 mM with a concentration of DMSO <1%. Then, we incubate for 2 to 4 hours at room temperature. We stop the reaction with […] of 50 mM phosphate buffer, pH 6.0, and filter it through a 0.2 μm 96-well filter plate (Millipore MAGU N22). We wash the filter plate with 100 μL of the same phosphate buffer. Aggregation was detected on a Microbeta counter after impregnating the filters with Meltilex (1450-441) and is corrected for background.

[4] = biological target: T1, Aβ(1-40); test: BASSR (Beta-Amyloid Self-Seeding Radioassay), inhibitors of self-seeded amyloid fibril growth; format: biochemical; settings: 30 μM soluble Aβ(1-40) + 125I-labeled Aβ(1-40), pH 7.5, 37° C., 3 to 5 hours, filtration
Method: BASSR (Beta-Amyloid Self-Seeding Radioassay)
as §1
Assay Buffer—50 mM sodium phosphate, pH 7.5, 100 mM NaCl, 0.02% NaN3, 1 M urea (filter and store at 4° C.)
Soluble Aβ(1-40) peptide (Bachem, Torrance, Calif.)—2.2 mg/mL in deionized H2O (stored in aliquots at −20° C., keep on ice when thawed) will self-seed after 1 week storage. Typically, the solution should be stored until no lag phase is seen in the assay.
^125I-labeled Aβ(1-40)—150K-350K cpm/μL in 100% acetonitrile—0.1% trifluoroacetic acid (TFA)—1% β-mercaptoethanol (aliquots stored at −20° C.). ^125I-labeled Aβ(1-40) can be made in accordance with the procedure set forth by H. Levine, III in Neurobiol. Aging, 16:755 (1995), which is hereby incorporated by reference, or this reagent may be purchased from Amersham, Arlington Heights, Ill.
Final assay conditions: 30 μM soluble Aβ(1-40) in deionized water in assay buffer+20-50K cpm ^125I-labeled Aβ(1-40) per assay. Compound to be tested is dissolved in dimethylsulfoxide (DMSO), typically 5-50 mM stock, such that the final concentration of DMSO is <1% v/v in the assay.
Assay: Reaction mixture for 50 assays (on ice) is comprised of 0.1-0.2 μL of […] ^125I-labeled Aβ(1-40)+1 μL of soluble Aβ(1-40)+13.5 μL assay buffer per assay. The following are the amounts of the components of the reaction mixture sufficient for 50 assay wells.
1) Prepare reaction mixture above by mixing components and storing on ice.
2) Pipet 14.5 μL of reaction mixture into each of 50 wells on a polypropylene U-bottom 96-well microtiter plate on ice (Costar 3794).
as §2, with “μL” for “mL”
4) Seal the plate with aluminum film (Beckman 538619) and incubate for 10 minutes on ice.
5) Raise the temperature to 37° C. and incubate for 3 to 5 hours (depending on the lot of the peptide).
6) Remove the aluminum film and add 200 μL/well of ice cold assay buffer with urea, collecting the radiolabeled fibrils by vacuum filtration through 0.2 μm pore size GVWP filters in 96-well plates (Millipore MAGV N22, Bedford, Mass.). Determine the radioactivity of the filters using standard methods well-known to those skilled in the art.

SMILES: CCCCCCN(C)c1ccc(/C=C2\SC(=S)N(Cc3nnn[nH]3)C2=O)cc1 [Example 16, (Z) 5-[4-(Hexyl-methyl-amino)benzylidene]-3-(1H-tetrazol-5-ylmethyl)-2-thioxo-thiazolidin-4-one]
- IC50 [1]: 3 µM
- IC50 [2]: 1.94 µM
- melting point: 198 to 200 °C
- IC50 [3]: 38 µM
- IC50 [4]: 7 µM

SMILES: CCCCCN(CCCCC)c1ccc(/C=C2\SC(=S)N(Cc3nnn[nH]3)C2=O)cc1 [Example 17]
- IC50 [1]: 1 µM and 1.5 µM
- IC50 [2]: 1.87 µM
- melting point: 208 to 210 °C
- IC50 [3]: 2 µM
- IC50 [4]: 10 µM and 5 µM

SMILES: CCCCN(CCCC)c1ccc(/C=C2\SC(=S)N(CC(=O)NS(=O)(=O)C(F)(F)F)C2=O)cc1 [Example 18, (Z) N-{[5-(4-Dibutylamino-benzylidene)-4-oxo-2-thioxo-thiazolidin-3-yl]-acetyl}-C,C,C-trifluoro-methanesulfonamide]
- IC50 [1]: 0.6 µM
- IC50 [2]: 1.88 µM
- melting point: 228 to 230 °C
- IC50 [3]: 122 µM
- IC50 [4]: 5 µM

SMILES: CCCCN(CCCC)c1ccc(/C=C2\SC(=S)N(CC(=O)NS(=O)(=O)c3ccccc3)C2=O)cc1 [Example 19, (Z) N-{[5-(4-Dibutylamino-benzytidene)-4-oxo-2-thioxo-thiazolidin-3-yl]-acetyl}-benzenesulfonamide]
- IC50 [1]: 1.1 µM
- IC50 [2]: 1.77 µM
- melting point: 112 to 115 °C
- IC50 [3]: 129 µM
- IC50 [4]: 5 µM

SMILES: CCCCCN(CCCCC)c1ccc(/C=C2\SC(=S)N(CC(=O)NS(=O)(=O)c3ccccc3)C2=O)cc1 [Example 22, (Z) N-{2-[5-(4-Dipentylamino-benzylidene)-4-oxo-2-thioxo-thiazolidin-3-yl]-acetyl}-benzenesulfonamide]
- IC50 [1]: 1 µM
- IC50 [2]: 1.99 µM
- melting point: 121 to 123 °C
- IC50 [3]: > 60 µM
- IC50 [4]: 3 µM

SMILES: O=C1/C(=C/c2ccc(N3CC[C@@H]4CCCC[C@H]4C3)cc2)SC(=S)N1Cc1nnn[nH]1 [Example 23, (Z) 5-[(4aS,8aR)-4-(Octahydro-isoquinolin-2-yl)-benzylidene]-3-(1H-tetrazol-5-ylmethyl)-2-thioxo-thiazolidin-4-one]
- IC50 [1]: 1 µM and 0.5 µM
- IC50 [2]: 3.33 µM
- melting point: 247 °C
- IC50 [3]: 30 µM
- IC50 [4]: > 100 µM

SMILES: CCCCCN(CCCCC)c1ccc(/C=C2\SC(=S)N(CC(=O)NS(=O)(=O)c3ccc(F)cc3)C2=O)cc1 [Example 27, (Z) N-{2-[5-(4-Dipentylamino-benzylidene)-4-oxo-2-thioxo-thiazolidin-3-yl]-acetyl}-4-fluoro-benzenesulfonamide]
- IC50 [1]: 2 µM
- IC50 [2]: 2.02 µM
- melting point: 130 to 132 °C
- IC50 [3]: 93 µM
- IC50 [4]: 7 µM

SMILES: CCCCN(CCCC)c1ccc(/C=C2\SC(=S)N(CCS(=O)(=O)NC(=O)c3ccccc3)C2=O)cc1 [Example 28, (Z) 2-[5-(4-Dibutylamino-benzylidene)-4-oxo-2-thioxo-thiazolidin-3-yl]-ethanesulfonic acid benzoylamide]
- IC50 [1]: 0.3 µM
- IC50 [2]: 2.19 µM
- melting point: 183 °C
- IC50 [3]: 69 µM
- IC50 [4]: 21 µM

SMILES: O=C(NS(=O)(=O)CCN1C(=O)/C(=C/c2ccc(N3CCC4CCCCC4C3)cc2)SC1=S)c1ccccc1 (centres unmarked) [Example 29, (Z) 2-{5-[4-(Octahydro-isoquinolin-2-yl)-benzylidene]-4-oxo-2-thioxo-thiazolidin-3-yl}-ethanesulfonic acid benzoylamide]
- IC50 [1]: 0.6 µM
- IC50 [2]: 3.42 µM
- melting point: 213 °C
- IC50 [3]: > 100 µM
- IC50 [4]: 11 µM

SMILES: O=C(NS(=O)(=O)CCN1C(=O)/C(=C/c2ccc(N3CCC4CCCCC4C3)cc2)SC1=S)c1ccc(F)cc1 (centres unmarked) [Example 30, (Z) 2-{5-[4(Octahydro-isoquinolin-2-yl)benzylidene]-4-oxo-2′-thioxo-thiazolidin-3-yl}-ethanesulfonic acid 4-fluoro-benzoylamide]
- IC50 [1]: 0.3 µM
- IC50 [2]: 2.26 µM
- melting point: 248 °C
- IC50 [3]: > 60 µM
- IC50 [4]: > 100 µM
